These results are taken from patent publication US9340590B2 (priority 2011, dated 2016).

What all share (assay): cell-based
Experiment [1] deals with T1, hNav1.7 (Homo sapiens, UniProt Q15858). It is filed as cell-based. To be noted: IonWorks Quattro; clamped to −110 mV, depolarized to −10 mV, 5 min after compound; n=2; read-out: IWQ Use Nav1.7.
The target in experiment [2] is T2, hNav1.5 (Homo sapiens, UniProt Q14524). To be noted: IonWorks Quattro; clamped to −110 mV, depolarized to −10 mV, 5 min after compound; n=2; read-out: IWQ Use Nav1.5.
T2 sequence (Q14524 whole entry, looked up): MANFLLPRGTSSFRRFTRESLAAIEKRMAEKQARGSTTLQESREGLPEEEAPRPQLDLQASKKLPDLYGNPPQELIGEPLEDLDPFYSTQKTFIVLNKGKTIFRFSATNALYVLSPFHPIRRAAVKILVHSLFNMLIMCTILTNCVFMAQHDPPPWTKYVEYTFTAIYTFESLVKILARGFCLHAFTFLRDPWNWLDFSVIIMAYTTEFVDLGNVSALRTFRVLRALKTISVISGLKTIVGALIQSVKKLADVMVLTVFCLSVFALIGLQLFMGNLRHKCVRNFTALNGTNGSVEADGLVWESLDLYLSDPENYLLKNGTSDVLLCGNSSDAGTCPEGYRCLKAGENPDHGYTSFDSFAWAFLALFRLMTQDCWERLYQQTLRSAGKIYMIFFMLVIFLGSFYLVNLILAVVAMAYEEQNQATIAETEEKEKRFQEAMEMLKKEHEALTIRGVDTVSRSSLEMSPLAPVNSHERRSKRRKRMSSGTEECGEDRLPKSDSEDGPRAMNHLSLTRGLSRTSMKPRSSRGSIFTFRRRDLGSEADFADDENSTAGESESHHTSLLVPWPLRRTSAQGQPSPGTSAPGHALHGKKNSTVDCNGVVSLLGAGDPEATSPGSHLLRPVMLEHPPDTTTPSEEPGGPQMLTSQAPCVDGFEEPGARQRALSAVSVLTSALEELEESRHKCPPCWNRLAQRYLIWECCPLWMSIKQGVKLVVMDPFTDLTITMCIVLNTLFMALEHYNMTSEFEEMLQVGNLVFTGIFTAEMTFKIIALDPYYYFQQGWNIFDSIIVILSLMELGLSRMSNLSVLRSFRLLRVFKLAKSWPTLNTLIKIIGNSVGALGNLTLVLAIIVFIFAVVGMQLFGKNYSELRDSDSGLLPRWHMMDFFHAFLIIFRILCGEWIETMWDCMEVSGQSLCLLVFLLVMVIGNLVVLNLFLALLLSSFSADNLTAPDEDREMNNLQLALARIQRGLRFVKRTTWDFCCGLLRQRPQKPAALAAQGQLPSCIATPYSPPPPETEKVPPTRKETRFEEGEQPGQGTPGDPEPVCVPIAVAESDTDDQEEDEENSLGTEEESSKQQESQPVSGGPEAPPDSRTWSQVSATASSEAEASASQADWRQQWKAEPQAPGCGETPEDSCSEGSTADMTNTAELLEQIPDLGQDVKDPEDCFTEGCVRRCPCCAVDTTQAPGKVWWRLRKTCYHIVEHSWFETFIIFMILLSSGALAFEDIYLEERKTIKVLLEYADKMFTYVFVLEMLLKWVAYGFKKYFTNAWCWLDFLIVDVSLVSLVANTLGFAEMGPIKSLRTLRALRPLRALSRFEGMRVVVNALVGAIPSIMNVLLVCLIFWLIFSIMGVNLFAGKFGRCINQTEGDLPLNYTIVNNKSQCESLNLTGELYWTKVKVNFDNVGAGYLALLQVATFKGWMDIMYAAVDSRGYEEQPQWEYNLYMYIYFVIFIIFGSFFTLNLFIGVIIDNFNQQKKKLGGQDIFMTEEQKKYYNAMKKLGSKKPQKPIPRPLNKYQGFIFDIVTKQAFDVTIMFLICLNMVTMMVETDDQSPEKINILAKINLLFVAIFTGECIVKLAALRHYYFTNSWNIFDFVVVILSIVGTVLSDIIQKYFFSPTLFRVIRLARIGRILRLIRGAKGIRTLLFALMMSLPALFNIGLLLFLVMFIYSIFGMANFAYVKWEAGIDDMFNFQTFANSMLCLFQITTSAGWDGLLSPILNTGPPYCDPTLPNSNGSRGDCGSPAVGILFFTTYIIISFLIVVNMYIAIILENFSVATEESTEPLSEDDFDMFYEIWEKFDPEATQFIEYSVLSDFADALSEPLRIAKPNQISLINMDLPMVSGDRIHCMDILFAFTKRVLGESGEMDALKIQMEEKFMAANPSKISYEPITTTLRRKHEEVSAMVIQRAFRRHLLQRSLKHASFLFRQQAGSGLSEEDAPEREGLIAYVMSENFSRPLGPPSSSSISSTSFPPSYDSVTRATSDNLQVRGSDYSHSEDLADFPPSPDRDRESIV
Experiment [3] addresses T1, hNav1.7. To be noted: Nav1.7 Use IC50.
Experiment [4] addresses hNav1.3 (Homo sapiens, UniProt Q9NY46). It is filed as cell-based. The settings on record: for pIC50: Nav1.3 Use IC50.
In experiment [5] the target is T2, hNav1.5.

Molecules are shown by their SMILES. pIC50: −log10 of the molar value. Where two headings read alike, the source gives them in different places. Positions of bridges follow the written chain, without caps; N, C: chain ends. Non-standard residues stand in square brackets, D forms with d. Residues, ends and D or L forms follow the SMILES beside them. Phe(4-I) = N[C@@H](Cc1ccc(I)cc1)C(=O)O

Chain of hNav1.3 (Q9NY46 whole entry, looked up): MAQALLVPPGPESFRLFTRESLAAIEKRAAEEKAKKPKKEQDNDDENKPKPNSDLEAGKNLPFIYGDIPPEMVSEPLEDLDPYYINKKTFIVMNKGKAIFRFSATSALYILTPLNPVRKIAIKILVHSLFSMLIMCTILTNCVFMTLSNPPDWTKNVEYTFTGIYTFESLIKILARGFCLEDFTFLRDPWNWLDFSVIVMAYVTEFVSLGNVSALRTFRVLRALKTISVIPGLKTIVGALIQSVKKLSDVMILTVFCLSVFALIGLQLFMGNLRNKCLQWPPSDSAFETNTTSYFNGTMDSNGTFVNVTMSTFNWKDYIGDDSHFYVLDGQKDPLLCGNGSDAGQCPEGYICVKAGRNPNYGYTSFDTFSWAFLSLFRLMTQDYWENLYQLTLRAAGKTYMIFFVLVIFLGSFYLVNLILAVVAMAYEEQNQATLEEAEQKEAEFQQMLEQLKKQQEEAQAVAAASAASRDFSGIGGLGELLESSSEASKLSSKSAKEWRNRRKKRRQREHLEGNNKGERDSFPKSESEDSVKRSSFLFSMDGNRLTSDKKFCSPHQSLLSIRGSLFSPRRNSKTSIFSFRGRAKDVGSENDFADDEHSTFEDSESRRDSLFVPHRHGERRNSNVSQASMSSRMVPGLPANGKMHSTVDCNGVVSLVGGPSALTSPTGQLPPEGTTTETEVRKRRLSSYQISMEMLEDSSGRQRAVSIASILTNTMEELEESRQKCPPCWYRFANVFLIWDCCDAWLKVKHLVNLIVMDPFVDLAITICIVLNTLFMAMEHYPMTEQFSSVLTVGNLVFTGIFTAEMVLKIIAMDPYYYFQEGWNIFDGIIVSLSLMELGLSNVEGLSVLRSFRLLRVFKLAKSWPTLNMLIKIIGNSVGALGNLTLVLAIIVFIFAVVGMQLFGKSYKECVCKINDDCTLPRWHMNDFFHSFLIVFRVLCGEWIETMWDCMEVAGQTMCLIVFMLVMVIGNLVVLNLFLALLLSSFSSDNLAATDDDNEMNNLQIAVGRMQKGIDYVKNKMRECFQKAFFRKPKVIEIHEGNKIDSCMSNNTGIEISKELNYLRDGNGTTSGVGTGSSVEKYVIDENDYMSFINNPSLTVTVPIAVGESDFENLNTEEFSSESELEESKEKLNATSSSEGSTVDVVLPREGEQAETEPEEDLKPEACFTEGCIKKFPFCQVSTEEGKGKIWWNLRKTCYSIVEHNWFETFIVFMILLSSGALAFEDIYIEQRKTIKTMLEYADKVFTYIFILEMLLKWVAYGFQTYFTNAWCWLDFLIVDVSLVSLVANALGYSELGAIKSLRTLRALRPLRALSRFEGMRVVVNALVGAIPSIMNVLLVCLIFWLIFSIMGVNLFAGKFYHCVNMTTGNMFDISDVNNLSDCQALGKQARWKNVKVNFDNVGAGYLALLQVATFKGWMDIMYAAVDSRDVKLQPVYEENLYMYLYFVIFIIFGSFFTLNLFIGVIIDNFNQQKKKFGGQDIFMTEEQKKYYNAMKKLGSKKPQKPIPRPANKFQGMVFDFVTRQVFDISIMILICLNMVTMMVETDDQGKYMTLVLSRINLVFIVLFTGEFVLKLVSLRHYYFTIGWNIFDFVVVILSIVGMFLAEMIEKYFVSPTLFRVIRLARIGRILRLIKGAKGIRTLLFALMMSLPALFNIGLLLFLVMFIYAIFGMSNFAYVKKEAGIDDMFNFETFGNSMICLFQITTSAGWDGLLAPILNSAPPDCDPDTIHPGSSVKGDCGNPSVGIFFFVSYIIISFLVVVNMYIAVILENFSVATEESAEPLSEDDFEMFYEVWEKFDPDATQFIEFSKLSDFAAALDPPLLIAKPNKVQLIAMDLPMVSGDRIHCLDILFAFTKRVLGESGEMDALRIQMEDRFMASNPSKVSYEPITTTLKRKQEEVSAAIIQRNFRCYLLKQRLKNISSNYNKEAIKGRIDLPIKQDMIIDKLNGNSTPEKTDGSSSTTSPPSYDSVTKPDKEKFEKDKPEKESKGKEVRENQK

For the compound `CC[C@H](C)[C@@H]1NC(=O)[C@@H]2CSSC[C@@H]3NC(=O)[C@H](C(C)C)NC(=O)[C@H](CC(C)C)NC(=O)[C@H](CC(N)=O)NC(=O)[C@@H]4CCCN4C(=O)[C@H](CCCNC(=N)N)NC(=O)[C@H](CSSC[C@H](NC(=O)[C@@H](N)CC(=O)O)C(=O)N[C@@H](CC(C)C)C(=O)NCC(=O)N[C@@H](Cc4ccc(-c5ccccc5)cc4)C(=O)N[C@@H](CCSC)C(=O)N[C@@H](CCCNC(=N)N)C(=O)N[C@@H](CCCCN)C(=O)N2)NC(=O)[C@H](CSSC[C@@H](C(=O)N[C@@H](CCCCN)C(=O)N[C@@H](Cc2ccc(O)cc2)C(=O)N[C@H](C(=O)N[C@@H](Cc2ccccc2)C(N)=O)C(C)C)NC(=O)[C@H](Cc2c[nH]c4ccccc24)NC(=O)[C@H](CCCCN)NC(=O)[C@H](Cc2c[nH]cn2)NC(=O)[C@H]([C@@H](C)O)NC(=O)[C@H](CCCNC(=N)N)NC(=O)[C@H](CO)NC3=O)NC(=O)[C@H](CCCCN)NC(=O)[C@H](CC(=O)O)NC(=O)[C@H](CC(N)=O)NC(=O)[C@H](CC(=O)O)NC(=O)[C@@H]2CCCN2C1=O` [SEQ ID NO: 242], the pIC50 in experiment [1] was 7.22; in experiment [2] it was 5.47; in experiment [3], 7.21; in experiment [4] it was 8.52; in experiment [5] (read-out: Nav1.5 Use IC50) it was 5.68. Moreover, in experiment [4], the “potency against NaV1.3, in words” value is recorded as “increased potency”.
In the case of `CC[C@H](C)[C@@H]1NC(=O)[C@@H]2CSSC[C@@H]3NC(=O)[C@H](C(C)C)NC(=O)[C@H](CC(C)C)NC(=O)[C@H](CC(N)=O)NC(=O)[C@@H]4CCCN4C(=O)[C@H](CCCNC(=N)N)NC(=O)[C@H](CSSC[C@H](NC(=O)[C@@H](N)CC(=O)O)C(=O)N[C@@H](CC(C)C)C(=O)NCC(=O)N[C@@H](Cc4ccccc4)C(=O)N[C@@H](CCSC)C(=O)N[C@@H](CCCNC(=N)N)C(=O)N[C@@H](CCCCN)C(=O)N2)NC(=O)[C@H](CSSC[C@@H](C(=O)N[C@@H](CCCCN)C(=O)N[C@@H](Cc2ccc(O)cc2)C(=O)N[C@@H](CCC(=O)O)C(=O)N[C@@H](Cc2ccccc2)C(N)=O)NC(=O)[C@H](Cc2c[nH]c4ccccc24)NC(=O)[C@H](CCCCN)NC(=O)[C@H](Cc2cnc[nH]2)NC(=O)[C@H]([C@@H](C)O)NC(=O)[C@H](CCCNC(=N)N)NC(=O)[C@H](CO)NC3=O)NC(=O)[C@H](CCCCN)NC(=O)[C@H](CC(=O)O)NC(=O)[C@H](CC(N)=O)NC(=O)[C@H](CC(=O)O)NC(=O)[C@@H]2CCCN2C1=O` [[Glu33]GpTx-1(1-34)] (H-DCLGFMRKCIPDNDKCCRPNLVCSRTHKWCKYEF-NH2; disulfide 2-17, 9-23, 16-30), the figures for the pIC50 in experiment [3], in experiment [4] and in experiment [5] were 7.57, 7.28 and less than 5.00, respectively.
Regarding `CC[C@H](C)[C@H](NC(=O)[C@H](Cc1ccc(O)cc1)NC(=O)[C@H](CCCCN)NC(=O)[C@@H]1CSSC[C@@H]2NC(=O)[C@H](CCCCN)NC(=O)[C@H](CC(=O)O)NC(=O)[C@H](CC(N)=O)NC(=O)[C@H](CC(=O)O)NC(=O)[C@@H]3CCCN3C(=O)[C@H]([C@@H](C)CC)NC(=O)[C@@H]3CSSC[C@H](NC(=O)[C@H](C(C)C)NC(=O)[C@H](CC(C)C)NC(=O)[C@H](CC(N)=O)NC(=O)[C@@H]4CCCN4C(=O)[C@H](CCCNC(=N)N)NC(=O)[C@H](CSSC[C@H](NC(=O)[C@@H](N)CC(=O)O)C(=O)N[C@@H](CC(C)C)C(=O)NCC(=O)N[C@@H](Cc4ccccc4)C(=O)N[C@@H](CCSC)C(=O)N[C@@H](CCCNC(=N)N)C(=O)N[C@@H](CCCCN)C(=O)N3)NC2=O)C(=O)N[C@@H](CO)C(=O)N[C@@H](CCCNC(=N)N)C(=O)N[C@@H]([C@@H](C)O)C(=O)N[C@@H](Cc2c[nH]cn2)C(=O)N[C@@H](CCCCN)C(=O)N[C@@H](Cc2c[nH]c3ccccc23)C(=O)N1)C(=O)N[C@@H](Cc1ccccc1)C(N)=O` [[Ile33]GpTx-1(1-34)] (H-DCLGFMRKCIPDNDKCCRPNLVCSRTHKWCKYIF-NH2; disulfide 2-17, 9-23, 16-30), the pIC50 in experiment [3] was 7.43; in experiment [4], 6.99; in experiment [5], less than 5.00.
As for `CC[C@H](C)[C@@H]1NC(=O)[C@@H]2CSSC[C@@H]3NC(=O)[C@H](C(C)C)NC(=O)[C@H](CC(C)C)NC(=O)[C@H](CC(N)=O)NC(=O)[C@@H]4CCCN4C(=O)[C@H](CCCNC(=N)N)NC(=O)[C@H](CSSC[C@H](NC(=O)[C@@H](N)CC(=O)O)C(=O)N[C@@H](CC(C)C)C(=O)NCC(=O)N[C@@H](Cc4ccccc4)C(=O)N[C@@H](CCSC)C(=O)N[C@@H](CCCNC(=N)N)C(=O)N[C@@H](CCCCN)C(=O)N2)NC(=O)[C@H](CSSC[C@@H](C(=O)N[C@@H](CCCCN)C(=O)N[C@@H](Cc2ccc(O)cc2)C(=O)N[C@H](C(=O)N[C@@H](Cc2ccccc2)C(N)=O)C(C)C)NC(=O)[C@H](Cc2c[nH]c4ccccc24)NC(=O)[C@H](CCCCN)NC(=O)[C@H](Cc2cnc[nH]2)NC(=O)[C@H](CC(C)C)NC(=O)[C@H](CCCNC(=N)N)NC(=O)[C@H](CO)NC3=O)NC(=O)[C@H](CCCCN)NC(=O)[C@H](CC(=O)O)NC(=O)[C@H](CC(N)=O)NC(=O)[C@H](CC(=O)O)NC(=O)[C@@H]2CCCN2C1=O` [[Leu26]GpTx-1(1-34)] (H-DCLGFMRKCIPDNDKCCRPNLVCSRLHKWCKYVF-NH2; disulfide 2-17, 9-23, 16-30), the pIC50 is 8.52 in experiment [3], 7.64 in experiment [4] and 5.30 in experiment [5].
In the case of `CC[C@H](C)[C@@H]1NC(=O)[C@@H]2CSSC[C@@H]3NC(=O)[C@H](C(C)C)NC(=O)[C@H](CC(C)C)NC(=O)[C@H](CC(N)=O)NC(=O)[C@@H]4CCCN4C(=O)[C@H](CCCNC(=N)N)NC(=O)[C@H](CSSC[C@H](NC(=O)[C@@H](N)CC(=O)O)C(=O)N[C@@H](CC(C)C)C(=O)NCC(=O)N[C@@H](Cc4ccccc4)C(=O)N[C@@H](CCSC)C(=O)N[C@@H](CCCNC(=N)N)C(=O)N[C@@H](CCCCN)C(=O)N2)NC(=O)[C@H](CSSC[C@@H](C(=O)N[C@@H](CCCCN)C(=O)N[C@@H](Cc2ccc(O)cc2)C(=O)N[C@H](C(=O)N[C@@H](Cc2ccccc2)C(N)=O)C(C)C)NC(=O)[C@H](Cc2c[nH]c4ccccc24)NC(=O)[C@H](CCCCN)NC(=O)[C@H]([C@@H](C)O)NC(=O)[C@H](CCCCN)NC(=O)[C@H](CCCNC(=N)N)NC(=O)[C@H](CO)NC3=O)NC(=O)[C@H](CCCCN)NC(=O)[C@H](CC(=O)O)NC(=O)[C@H](CC(N)=O)NC(=O)[C@H](CC(=O)O)NC(=O)[C@@H]2CCCN2C1=O` [[Lys26;Thr27]GpTx-1(1-34)] (H-DCLGFMRKCIPDNDKCCRPNLVCSRKTKWCKYVF-NH2; disulfide 2-17, 9-23, 16-30), the values for the pIC50 in experiment [3], in experiment [4] and in experiment [5] were 8.40, 7.80 and 5.86, respectively.
With `CC[C@H](C)[C@@H]1NC(=O)[C@@H]2CSSC[C@@H]3NC(=O)[C@H](C(C)C)NC(=O)[C@H](CC(C)C)NC(=O)[C@H](CC(N)=O)NC(=O)[C@@H]4CCCN4C(=O)[C@H](Cc4c[nH]c5ccccc45)NC(=O)[C@H](CSSC[C@H](NC(=O)[C@@H](N)CC(=O)O)C(=O)N[C@@H](CC(C)C)C(=O)NCC(=O)N[C@@H](Cc4ccccc4)C(=O)N[C@@H](CCSC)C(=O)N[C@@H](CCCNC(=N)N)C(=O)N[C@@H](CCCCN)C(=O)N2)NC(=O)[C@H](CSSC[C@@H](C(=O)N[C@@H](CCCCN)C(=O)N[C@@H](Cc2ccc(O)cc2)C(=O)N[C@H](C(=O)N[C@@H](Cc2ccccc2)C(N)=O)C(C)C)NC(=O)[C@H](Cc2c[nH]c4ccccc24)NC(=O)[C@H](CCCCN)NC(=O)[C@H](Cc2c[nH]cn2)NC(=O)[C@H]([C@@H](C)O)NC(=O)[C@H](CCCNC(=N)N)NC(=O)[C@H](CO)NC3=O)NC(=O)[C@H](CCCCN)NC(=O)[C@H](CC(=O)O)NC(=O)[C@H](CC(N)=O)NC(=O)[C@H](CC(=O)O)NC(=O)[C@@H]2CCCN2C1=O` [[Trp18]GpTx-1(1-34)] (H-DCLGFMRKCIPDNDKCCWPNLVCSRTHKWCKYVF-NH2; disulfide 2-17, 9-23, 16-30), the figures for the pIC50 in experiment [3], in experiment [4] and in experiment [5] were 7.62, 7.38 and less than 5.00, respectively.
`CC[C@H](C)[C@@H]1NC(=O)[C@@H]2CSSC[C@@H]3NC(=O)[C@H](C(C)C)NC(=O)[C@H](CC(C)C)NC(=O)[C@H](CC(N)=O)NC(=O)[C@@H]4CCCN4C(=O)[C@H](CCCNC(=N)N)NC(=O)[C@H](CSSC[C@H](NC(=O)[C@@H](N)CC(=O)O)C(=O)N[C@@H](CC(C)C)C(=O)NCC(=O)N[C@@H](Cc4ccccc4)C(=O)N[C@@H](CCSC)C(=O)N[C@@H](CCCNC(=N)N)C(=O)N[C@@H](CCCCN)C(=O)N2)NC(=O)[C@H](CSSC[C@@H](C(=O)N[C@@H](CCCCN)C(=O)N[C@@H](Cc2ccc(O)cc2)C(=O)N[C@@H](Cc2ccc(I)cc2)C(=O)N[C@@H](Cc2ccccc2)C(N)=O)NC(=O)[C@H](Cc2c[nH]c4ccccc24)NC(=O)[C@H](CCCCN)NC(=O)[C@H](Cc2c[nH]cn2)NC(=O)[C@H]([C@@H](C)O)NC(=O)[C@H](CCCNC(=N)N)NC(=O)[C@H](CO)NC3=O)NC(=O)[C@H](CCCCN)NC(=O)[C@H](CC(=O)O)NC(=O)[C@H](CC(N)=O)NC(=O)[C@H](CC(=O)O)NC(=O)[C@@H]2CCCN2C1=O` [[pI-Phe33]GpTx-1(1-34)] (H-DCLGFMRKCIPDNDKCCRPNLVCSRTHKWCKY[Phe(4-I)]F-NH2; disulfide 2-17, 9-23, 16-30): the pIC50 is 7.59 in experiment [3], 7.46 in experiment [4] and 4.98 in experiment [5].
